For one data set, the system named is TβRI. Briefly: Smad responsive luciferase reporter (CAGA12-Luc) in R1BL17 cells transfected with TGFβRI (WT or TD mutant). Particulars: 20 h. The format is cell-based, mink.
Data set [1] relates to Hh signaling (Gli1, Ptch1 mRNA) in NIH3T3-E1 cells. Kind of data set: Ligand-induced Hh target gene expression (Q-RT-PCR) in NIH3T3 cells treated with CAPAN-1 conditioned medium. The format is cell-based. The method, then:
Growth medium in confluent […] tissue culture plates of CAPAN-1 cells was replaced with 10 mL of fresh growth medium and cells incubated for a total of 7 days. Conditioned medium (CM) containing Shh and Ihh was collected and spun down to remove any detached cells and debris, aliquoted, and stored frozen at −80 °C (21).
(§1) Total RNA was extracted with the RNeasy Plus Mini Kit from Qiagen (Hilden, Germany) according to the manufacturer’s instructions. One microgram of RNA was reverse-transcribed using an iScript Reverse Transcription Supermix from Bio-Rad Laboratories (Hercules, CA, USA) to make single-stranded cDNA. The cDNAs were then mixed with Qi SYBR Green Supermix (Bio-Rad) for quantitative RT-PCR assay using a Bio-Rad I-cycler IQ quantitative thermocycler. All PCR samples were prepared in triplicate wells in a 96-well plate. After 40 cycles of PCR, melt curves were examined in order to ensure primer specificity. Fold changes in gene expression were calculated using the ΔΔCt method. Primers used for mouse were as follows: Oaz1 (5′-CCACTGCTTCGCCAGAGAG-3′) and (5′-CCCGGACCCAGGTTACTA-3′), Gli1 (5′- […]-3′ and 5′- GCT GATCCAGCCTAAGGTTCTC-3′), Ptch1 (5′-CCATCGGCGACAAGAACC-3′ and 5′-[…]-3′), Thbs1 (5′-[…]-3′ and 5′-CGGGGATCAGGTTGGCATT-3′), Cryab (5′-[…]-3′ and 5′-[…]-3′), Egr2 (5′-[…]-3′ and 5′-[…]-3′), CTGF (5′-GGGCCTCTTCTGCGATTTC-3′ and 5′-[…]-3′).
Statistical analyses were performed using the StatView 5 program (SAS Institute, Cary, NC, USA). All p values were calculated using ANOVA and Fisher’s projected least significant difference (PLSD) significance test. A value of p < 0.05 was considered significant. The IC 50 dose-response curves shown in Figure 4b and Figure 7a–c were modeled using a five-parameter logistic model. This model allows for asymmetric curves and automatically estimates the mean maximum and minimum response. Based on this model, IC 50 values were estimated corresponding to the dose halfway between min and max response. Models of dose versus response and dose versus log response were also evaluated (see Supplementary Materials). The R square statistic was computed as a measure of model fit.
Figure 4 Inhibition of ligand-induced Hedgehog and TGFβ signaling in mouse fibroblast cells. NIH3T3 cells were pretreated for 2 h with Oxy210 or various inhibitors as indicated in DMEM containing 5% FBS. […] After 72 h, RNA was extracted and analyzed by Q-RT-PCR for the expression of Hh target genes Gli1 and Ptch1 and normalized to Oaz1 expression (a,b). […] After 48 h, RNA was extracted and analyzed by Q-RT-PCR for the expression of TGFβ target genes as indicated and normalized to Oaz1 expression. […] Luciferase activity was measured and normalized to the Renilla luciferase activity. […]

In data set [2] the test system is EGF or Il-1β target gene expression (fibronectin, IL-6) in NIH3T3-E1 or A549 cells. Kind of data set: Target gene expression after stimulation with EGF or Il-1β (pathway specificity). The format is cell-based. An excerpt: We content that the biological properties of Oxy210 described here are specific inhibitory effects, by and large limited to Hh and TGF β signaling, rather than the result of nonspecific binding events and/or a pan inhibition of cellular signaling.

Data set [3] deals with Liver X Receptor (LXR). The format is cell-based. Particulars: mouse.
Another data set relates to A549 cells. Briefly: TGFβ-induced EMT in A549 cells (morphology, Q-RT-PCR). The format is cell-based, human. The method, then:
as §1
Primers used for human were as follows: GAPDH (5′- […]-3′ and 5′- […]-3′), SHH (5′- CGGAGCGAGGAAGGGAAAG-3′) and (5′- […]-3′), GLI1 (5′- GAAGCCGAGCCGAGTATC-3′ and 5′-[…]-3′), GLI2 (5′-[…]-3′ and 5′-[…]-3′), Fn-EDA (5′- […]-3′ and 5′- […]-3′), E-Cadherin (5′- […]-3′ and 5′- TCCCAGGCGTAGACCAAGA-3′), SNAIL (5′- […]-3′ and 5′- […]-3′), N-Cadherin (5′- […]-3′ and 5′- […]-3′), Vimentin (5′- […]-3′ and 5′- […]-3′), ZO-1 (5′- […]-3′ and 5′- […]-3′), MMP2 (5′- […]-3′ and 5′- […]-3′), MMP9 (5′-[…]-3′ and 5′-[…]).
Figure 8 Inhibition of TGFβ-induced EMT in NSCLC cells. (a) A549 cells were treated with TGFβ in the absence or presence of Oxy210 in RPMI 1640 containing 2% FBS for 5 days. The cells were washed with PBS and then fixed with 2% formaldehyde in PBS at room temperature for 15 min. Formaldehyde was then removed, cells washed with PBS and stained with 4% Trypan Blue for 5 min. Phase contrast images were obtained using a 20X objective lens. A549 (b,c) and H2030 (d) cells were treated in RPMI 1640 containing 0.1% FBS overnight and then pretreated for 2 h with Oxy210 in RPMI 1640 containing 0.1% FBS. Next, cells were treated with TGFβ in the absence or presence of Oxy210. After 48 h, RNA was extracted and analyzed by Q-RT-PCR for the expression of the genes as indicated and normalized to GAPDH expression. Data from a representative experiment are reported as the mean of triplicate determinations ± SD (** p < 0.01 vs. TGFβ treated cells; ## p < 0.01 vs. control).

Data set [4] relates to Liver X Receptor (LXR). Kind of data set: LXR activity, summary of drug-like properties. The format is cell-based.

For the molecule `C[C@]12CC[C@H]3[C@@H](CC=C4C[C@@H](O)CC[C@@]43C)[C@@H]1CC[C@@H]2[C@](C)(O)CCc1cccnc1` [Oxy210, (3S,8S,9S,10R,13S,14S,17S)-17-((R)-2-hydroxy-4-(pyridin-3-yl)butan-2-yl)-10,13-dimethyl-2,3,4,7,8,9,10,11,12,13,14,15,16,17-tetradecahydro-1H-cyclopenta[a]phenanthren-3-ol], the “activity of Smad responsive reporter stimulated by TGFβ-activated RI or ligand independent RI_TD” value in the data set on TβRI is on record as “significantly inhibited”. Further, the IC10 Estimate, dataset 1 - Fig 4b in data set [1] (Gli1 mRNA, original scale Y, logistic curve model) is 330 nM. Moreover, the IC90 – broadly, the point of the concentration-response curve where the effect stands at 90% – in data set [1] (Mus musculus, Gli1 mRNA, original scale Y, logistic curve model, read-out: IC90 Estimate, dataset 1 - Fig 4b) is 5500 nM. In data set [1] (NIH3T3-E1 cells, CAPAN-1 CM, 72 h), the “mRNA expression of ligand-induced Hh target genes Gli1 and Ptch1” value is reported as “robustly inhibited”. For the same molecule, the IC50 (commonly the concentration that inhibits the measured activity by half) in data set [1] (NIH3T3-E1 cells, CAPAN-1 CM, 72 h, Gli1 mRNA, five-parameter logistic model, ± SE, read-out: IC50 for inhibition of Gli1 expression) was determined as 1830 ± 210 nM. The “inhibition of EGF or Il-1β target gene expression (fibronectin, IL-6)” value in data set [2] was “did not result in significant inhibition”. Besides, the ABCA1 expression result in the data set with Liver X Receptor (LXR) [3] is listed as “absence of ABCA1 expression”. Besides, in the data set on A549 cells, the “TGFβ-induced EMT morphology changes” value was “reversed”. In the data set with A549 cells (48 h), the “expression of E-Cad downregulated by TGFβ” value was “partially rescued”; the “expression of mesenchymal genes upregulated by TGFβ (SNAIL, ZO-1, Fn-EDA, N-Cad)” value is reported as “inhibited the expression of mesenchymal genes”; the “mRNA expression of MMP2 and MMP9 induced by TGFβ” value is “inhibited the mRNA expression”. Also, the LXR activity result in the data set with Liver X Receptor (LXR) [4] was “devoid of undesirable Liver X Receptor (LXR) activity”.

The values above are taken from PMC6829886, “Inhibition of Non-Small Cell Lung Cancer Cells by Oxy210, an Oxysterol-Derivative that Antagonizes TGFβ and Hedgehog Signaling” (Cells, 2019).
